Test results taken from PMC11653251 (2024).

Assays:
[1] = tested on: (AT)6 (DNA, duplex) ATATATATATAT; assay: UV-vis absorption titration, Bard fit; settings: K+ (50 mM potassium phosphate), complex 10 μM, average of two titrations, [DNA] per nucleobase (stated for st-DNA)
[2] = tested on: (GC)6 (DNA, duplex) GCGCGCGCGCGC; assay: UV-vis absorption titration, Bard fit; settings: K+ (50 mM potassium phosphate), complex 10 μM, average of two titrations, [DNA] per nucleobase (stated for st-DNA)

Row | SMILES | Kb [1] | Kb [2]
1 | Cc1cnc2c(ccc3c(C)c(C)cnc32)c1C.Cc1cnc2c(ccc3c(C)c(C)cnc32)c1C.[Cr+3].c1ccc2cc3nc4c5cccnc5c5ncccc5c4nc3cc2c1 [Δ-1] | 1.13 ± 0.24 × 10^6 M^-1 | 1.17 ± 0.53 × 10^6 M^-1
2 | Cc1cnc2c(ccc3c(C)c(C)cnc32)c1C.Cc1cnc2c(ccc3c(C)c(C)cnc32)c1C.[Cr+3].c1ccc2cc3nc4c5cccnc5c5ncccc5c4nc3cc2c1 [Λ-1] | 11.8 ± 0.35 × 10^6 M^-1 | 2.39 ± 0.32 × 10^6 M^-1
